Reference: patent US5418238A, “17β-substituted 4-aza-5α-androstan-3-one derivatives” (Farmitalia Carlo Erba S.R.L., priority 1992, dated 1995)

Key:
5α-reductase [1] = molecular target: T1, 5α-reductase (Homo sapiens, UniProt P31213); assay: In vitro assay of 5α-reductase inhibition (particulate fraction from hyperplastic human prostates, [14C]testosterone); assay type: biochemical; conditions: human prostate particulate fraction, 1 μM [14C]testosterone, pH 5.5, 37° C., 30 min
T1 construct: particulate fraction from homogenates of hyperplastic human prostates as the enzyme source; from tissue; host or cells: hyperplastic human prostate, particulate fraction (140,000 x g pellet of homogenate)
T1 sequence (P31213 1-254): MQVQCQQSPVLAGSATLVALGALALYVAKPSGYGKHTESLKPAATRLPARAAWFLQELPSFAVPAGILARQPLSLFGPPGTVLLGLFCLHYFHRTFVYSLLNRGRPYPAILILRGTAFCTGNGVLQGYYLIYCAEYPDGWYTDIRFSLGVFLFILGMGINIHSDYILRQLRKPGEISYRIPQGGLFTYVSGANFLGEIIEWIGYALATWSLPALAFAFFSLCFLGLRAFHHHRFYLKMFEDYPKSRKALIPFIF
Method: Inhibition of 5α-reductase was evaluated using the particulate fraction from homogenates of hyperplastic human prostates as the enzyme source. The particulate fraction was prepared centrifuging prostate homogenate at 140,000 x g. The resulting pellet, washed several times, was resuspended in buffer and stored at -80° C. in aliquots containing ≈10 mg protein/ml.
The assay for 5α-reductase was done in a final volume of 0.5 ml, in 40 mM TRIS-HCl buffer pH 5.5, containing I mM dithiothreitol, 5 mM NADPH, 1 μM [^14 C]testosterone, an aliquot of the enzyme preparation and various concentrations of the inhibitors. After 30 min incubation at 37° C. the reaction was terminated by addition of 2 ml cold diethyl ether and the organic phase was separated, evaporated under N2 and resuspended in ethyl acetate. Testosterone metabolites in this extract were separated in TLC on silica gel F 254 plates (Merck), using chloroform, acetone and n-hexane (2:1:2) as developing solvent system. Radioactivity on the plate was scanned and analysed from quantitative plots printed by a TLC-analyzer (Berthold). The fractional 5α-reduction of testosterone was calculated by relating the ^14 C-radioactivity in the 5α-reduced metabolites (5α-dihydrotesterone, […]) regions to the total radioactivity in the testosterone and 5α-reduced metabolites regions.

5α-reductase [2] = assay: In vivo inhibition of 5α-reductase (testosterone-induced prostate hypertrophy in castrated rats); design: species or system rat; conditions: castrated testosterone-implanted rats, once daily for 7 days, ventral prostate weight
Method: The standard test for the antiandrogenic effect in rats was used. Prepuberal 22-day-old male rats were castrated via scrotal incision under light ether anaesthesia. On the seventh day after orchiectomy, androgen replacement was performed via subcutaneous implantation of 1 cm-long Silastic® tube (Dow-Corning, model No. 602-265) filled with a mixture of 25% testosterone and 75% cholesterol. […] Twenty four hours after the last dose the rats were sacrificed and the ventral prostate was removed and weighed. Control animals (testosterone controls) received the vehicle (0.5 ml/kg of 0.5% Methocel/0.4% Tween 80). One group of castrated rats was not implanted with testosterone (castrated controls).
The mean percentage of inhibition of the T-induced hypertrophic response of the prostate was calculated according to the following formula: […]
where WTC, WCC and WI are the mean prostate weight of testosterone control, castrated control and inhibitor treated group, respectively.

| IC50 (5α-reductase [1]) [nM] | SMILES | % Inhibition of prostate weight at 3 mg/kg/day p.o. (5α-reductase [2]) [%] |
| --- | --- | --- |
| 14 | CC(C)(NC(=O)[C@H]1CC[C@H]2[C@@H]3CC[C@H]4NC(=O)C=C[C@]4(C)[C@H]3CC[C@]12C)C(=O)C(F)(F)F [Compound 22, N-[1,1,1-trifluoro-3-methyl-2-oxobut-3-yl]3-oxo-4-aza-5α-androst-1-ene-17β-carboxamide] | 50 |
| 16 | CC(NC(=O)[C@H]1CC[C@H]2[C@@H]3CC[C@H]4NC(=O)C=C[C@]4(C)[C@H]3CC[C@]12C)C(=O)C(F)(F)F (stereo partly drawn) [Compound 5, N-[1,1,1-trifluoro-2-oxobut-3-yl]3-oxo-4-aza-5α-androst-1-ene-17β-carboxamide] | 58 |
| 8 | CC(C)C(NC(=O)[C@H]1CC[C@H]2[C@@H]3CC[C@H]4NC(=O)C=C[C@]4(C)[C@H]3CC[C@]12C)C(=O)C(F)(F)F (stereo partly drawn) [Compound 7, N-[1,1,1-trifluoro-4-methyl-2-oxopent-3-yl]3-oxo-4-aza-5α-androst-1-ene-17β-carboxamide] |  |
